system: ISR pathway (ATF4 translation); test: ATF4 Nano Luciferase reporter integrated stress response (ISR) assay in H4 ATF4-NLuc cells; conditions: Homo sapiens, H4 ATF4-NLuc (clone 17) cells; compound 30 minutes, then 50 um sodium arsenite for 6 hours; luminescence readout

IC50 | Compound
8.5 nM | O=C(COc1ccc(Br)cc1)NC12CC(c3nnc([C@H]4C[C@@H](OC(F)(F)F)C4)o3)(C1)C2 [Example 163]
8.1 nM | O=C(NC12CC(c3nnc([C@H]4C[C@@H](OC(F)(F)F)C4)o3)(C1)C2)c1ccc2cc(C(F)(F)F)ccc2n1 [Example 166, N-[1-[5-[3-cis-(trifluoromethoxy)cyclobutyl]-1,3,4-oxadiazol-2-yl]-3-bicyclo[1.1.1]pentanyl]-6-(trifluoromethyl)quinoline-2-carboxamide]

same assay, conditions: Homo sapiens, read-out: Activity (IC50)

Compound | IC50
CC(C)(C)[Si](C)(C)O[C@H]1C[C@@H](c2nnc(C34CC(NC(=O)COc5ccc(Cl)cc5)(C3)C4)o2)C1 [Example 260] | < 1000 nM

same assay, conditions: Homo sapiens, read-out: Activity (IC50), H4 ATF4-NLuc (clone 17) cells; compound 30 minutes, then 50 um sodium arsenite for 6 hours; luminescence readout

IC50 | Compound
< 1000 nM | O=C(CO[C@H]1C[C@@H](OC(F)(F)F)C1)NC12CC(c3cnn(-c4ccc(Cl)cc4)c3)(C1)C2 [Example 263]
1000 to 10000 nM | O=C(COc1ccc(Cl)cc1)NC12CC(N3CC(C4CCC4)CC3=O)(C1)C2 (stereo not shown) [Example 213]
< 1000 nM | O=C(NC12CC(c3nnc([C@H]4C[C@@H](OC(F)(F)F)C4)o3)(C1)C2)c1cc2ccc(Br)cc2cn1 [Example 184]
< 1000 nM | O=C(CO[C@H]1C[C@@H](OC(F)(F)F)C1)NC12CC(NCCOc3ccc(Cl)c(F)c3)(C1)C2 [Example 246]
< 1000 nM | O=C(CO[C@H]1C[C@@H](OC(F)(F)F)C1)NC12CC(c3nc(-c4ccc(Cl)cc4)no3)(C1)C2 [Example 205]
< 1000 nM | CN1C(=O)N(C23CC(NC(=O)COc4ccc(Cl)cc4)(C2)C3)CC1c1ccc(Cl)cc1 (stereo not shown) [Example 212]
< 1000 nM | O=C(COc1ccc(Cl)c(F)c1)NC12CC(c3nnc([C@H]4C[C@@H](n5nccn5)C4)o3)(C1)C2 [Example 244]
< 1000 nM | O=C(COc1ccc(Cl)c(F)c1)NC12CC(NC(=O)OC[C@H]3C[C@H](OC(F)(F)F)C3)(C1)C2 [Example 238]
1000 to 10000 nM | O=C(COc1ccc(Cl)c(F)c1)NC12CC(N3CC(COC(F)(F)F)OC3=O)(C1)C2 (stereo not shown) [Example 223]
< 1000 nM | O=C(CO[C@H]1C[C@@H](OC(F)(F)F)C1)NC12CC(c3nnc(-c4ccc(C(F)(F)F)nc4)o3)(C1)C2 [Example 204]
< 1000 nM | O=C(NC12CC(c3nnc([C@H]4C[C@@H](OC(F)(F)F)C4)o3)(C1)C2)c1ccc2ccccc2n1 [Example 187]
< 1000 nM | O=C(NC12CC(n3cnc(-c4ccc(F)c(F)c4)c3)(C1)C2)[C@H]1C[C@H](OCCOC(F)(F)F)C1 [Example 249]
< 1000 nM | O=C(NC12CC(c3nnc([C@H]4C[C@@H](OC(F)(F)F)C4)o3)(C1)C2)c1cn2ccc(C(F)(F)F)cc2n1 [Example 185]
< 1000 nM | O=C(CO[C@H]1C[C@@H](OC(F)(F)F)C1)NC12CC(c3ncn(-c4ccc(Cl)c(F)c4)n3)(C1)C2 [Example 239]
< 1000 nM | O=C(NC12CC(c3nnc([C@H]4C[C@@H](OC(F)(F)F)C4)o3)(C1)C2)C(O)Cc1ccc(Cl)cc1 (stereo partly shown) [Example 253]
< 1000 nM | O=C(CO[C@H]1C[C@@H](OC(F)(F)F)C1)NC12CC(n3cc(-c4ccc(Cl)cc4)oc3=O)(C1)C2 [Example 198]
< 1000 nM | O=C(COc1ccc(Cl)c(F)c1)NC12CC(N3CC(C4CCC4)OC3=O)(C1)C2 (stereo not shown) [Example 216]
< 1000 nM | O=C(CO[C@H]1C[C@@H](OC(F)(F)F)C1)NC12CC(c3nnn(-c4ccc(Cl)cc4)n3)(C1)C2 [Example 243]
< 1000 nM | O=C(NC12CC(c3nnc([C@H]4C[C@@H](OC(F)(F)F)C4)o3)(C1)C2)N1CCc2cc(Cl)ccc2C1 [Example 268]
< 1000 nM | O=C(NC12CC(c3nnc([C@H]4C[C@@H](OC(F)(F)F)C4)o3)(C1)C2)c1cn2cc(C(F)(F)F)ccc2n1 [Example 186]

Further lines, the compound ahead of its results:

Compound | IC50
O=C(COc1ccc(Cl)c(F)c1)NC12CC(c3nnc(CN4CCC(F)(F)C4)o3)(C1)C2 [Example 125, 2-(4-chloro-3-fluoro-phenoxy)-N-[3-[5-[(3,3-difluoropyrrolidin-1-yl)methyl]-1,3,4-oxadiazol-2-yl]-1-bicyclo[1.1.1]pentanyl]acetamide] | < 1000 nM
O=C(NC12CC(c3nnc([C@H]4C[C@@H](OC(F)(F)F)C4)o3)(C1)C2)C1=NO[C@H](c2ccccc2)C1 [Example 100, cis-(S)-5-phenyl-N-(3-(5-(3-(trifluoromethoxy)cyclobutyl)-1,3,4-oxadiazol-2-yl)bicyclo[1.1.1]pentan-1-yl)-4,5-dihydroisoxazole-3-carboxamide] | < 1000 nM
N#C[C@H]1C[C@H](n2ncc(C34CC(NC(=O)COc5ccc(Cl)c(F)c5)(C3)C4)n2)C1 [Example 33, 2-(4-chloro-3-fluorophenoxy)-N-(3-(2-((trans)-3-cyanocyclobutyl)-2H-1,2,3-triazol-4-yl)bicyclo[1.1.1]pentan-1-yl)acetamide] | < 1000 nM
O=C(COc1ccc(Cl)c(F)c1)NC12CC(c3nnc(C4CC4(F)F)o3)(C1)C2 (stereo not shown) [Example 18, 2-(4-chloro-3-fluoro-phenoxy)-N-[3-[5-(2,2-difluorocyclopropyl)-1,3,4-oxadiazol-2-yl]-1-bicyclo[1.1.1]pentanyl]acetamide] | < 1000 nM
O=C(COC1CCC1)NC12CC(c3cn(-c4ccc(Cl)cc4)nn3)(C1)C2 [Example 28, N-[1-[1-(4-Chlorophenyl)triazol-4-yl]-3-bicyclo[1.1.1]pentanyl]-2-(cyclobutoxy)acetamide] | < 1000 nM
Cc1ccc(-c2cn(C34CC(NC(=O)CO[C@H]5C[C@@H](OC(F)(F)F)C5)(C3)C4)cn2)cc1F [Example 140] | < 1000 nM
O=C(COc1ccc(Cl)c(F)c1)NC12CC(c3nnc([C@H]4C[C@@H](C(F)(F)F)C4)o3)(C1)C2 [Example 43, 2-(4-chloro-3-fluorophenoxy)-N-(3-(5-((cis)-3-(trifluoromethyl)cyclobutyl)-1,3,4-oxadiazol-2-yl)bicyclo[1.1.1]pentan-1-yl)acetamide] | < 1000 nM
O=C(CC[C@H]1C[C@@H](OC(F)(F)F)C1)NC12CC(c3nnc(C4CC(OC(F)(F)F)C4)o3)(C1)C2 (stereo partly drawn) [Example 75, 3-[3-cis-(trifluoromethoxy)cyclobutyl]-N-[3-[5-[3-cis-(trifluoromethoxy)cyclobutyl]-1,3,4-oxadiazol-2-yl]-1-bicyclo[1.1.1]pentanyl]propanamide] | 1000 to 10000 nM
O=C(NC12CC(c3nnc([C@H]4C[C@@H](OC(F)(F)F)C4)o3)(C1)C2)c1cc(C2CC2)on1 [Example 98, 5-cyclopropyl-N-[3-[5-[3-cis-(trifluoromethoxy)cyclobutyl]-1,3,4-oxadiazol-2-yl]-1-bicyclo[1.1.1]pentanyl]isoxazole-3-carboxamide] | 1000 to 10000 nM
O=C(CO[C@H]1C[C@@H](OC(F)(F)F)C1)NC12CC(c3nnc(-c4ccn(CC(F)(F)F)n4)o3)(C1)C2 [Example 119, N-[3-[5-[1-(2,2,2-trifluoroethyl)pyrazol-3-yl]-1,3,4-oxadiazol-2-yl]-1-bicyclo[1.1.1]pentanyl]-2-[3-cis-(trifluoromethoxy)cyclobutoxy]acetamide] | 1000 to 10000 nM
O=C(CO[C@H]1C[C@H](OC(F)(F)F)C1)NC12CC(c3nnc([C@H]4C[C@@H](OC(F)(F)F)C4)o3)(C1)C2 [Example 95, 2-[3-trans-(trifluoromethoxy)cyclobutoxy]-N-[3-[5-[3-cis-(trifluoromethoxy)cyclobutyl]-1,3,4-oxadiazol-2-yl]-1-bicyclo[1.1.1]pentanyl]acetamide] | < 1000 nM
O=C(NC12CC(c3nnc(C4CC(OC(F)(F)F)C4)o3)(C1)C2)c1nc2cc(Cl)ccc2o1 (stereo not shown) [Example 165] | < 1000 nM
O=C(COc1ccc(Br)cc1)NC12CC(c3nnc([C@H]4C[C@@H](OC(F)(F)F)C4)o3)(C1)C2 [Example 163] | < 1000 nM
O=C(NC12CC(c3nnc([C@H]4C[C@@H](OC(F)(F)F)C4)o3)(C1)C2)c1cn2ccc(Cl)cc2n1 [Example 104, 7-chloro-N-[3-[5-[3-cis-(trifluoromethoxy)cyclobutyl]-1,3,4-oxadiazol-2-yl]-1-bicyclo[1.1.1]pentanyl]imidazo[1,2-a]pyridine-2-carboxamide] | < 1000 nM
O=C(NC12CC(c3nnc([C@H]4C[C@@H](OC(F)(F)F)C4)o3)(C1)C2)c1ccn([C@H]2C[C@@H](OC(F)(F)F)C2)n1 (single isomer, unassigned) [Example 108, 1-[cis-3-(trifluoromethoxy)cyclobutyl]-N-[3-[5-[cis-3-(trifluoromethoxy)cyclobutyl]-1,3,4-oxadiazol-2-yl]-1-bicyclo[1.1.1]pentanyl]pyrazole-3-carboxamide] | < 1000 nM
O=C(NC12CC(c3nnc([C@H]4C[C@@H](OC(F)(F)F)C4)o3)(C1)C2)c1ccc(OC(F)(F)F)cn1 [Example 164] | < 1000 nM
C#CCN(C(=O)COc1ccc(Cl)cc1)C12CC(c3nnc([C@H]4C[C@@H](OC(F)(F)F)C4)o3)(C1)C2 [Example 74, 2-(4-chlorophenoxy)-N-prop-2-ynyl-N-[1-[5-[3-cis-(trifluoromethoxy)cyclobutyl]-1,3,4-oxadiazol-2-yl]-3-bicyclo[1.1.1]pentanyl]acetamide] | < 1000 nM
O=C(COc1ccc(Cl)cc1)NC12CC(c3nnc(CC(F)(F)F)o3)(C1)C2 [Example 4, 2-(4-chlorophenoxy)-N-[3-[5-(2,2,2-trifluoroethyl)-1,3,4-oxadiazol-2-yl]-1-bicyclo[1.1.1]pentanyl]acetamide] | 1000 to 10000 nM
O=C(COc1cccc(OC(F)(F)F)c1)NC12CC(c3nnc([C@H]4C[C@@H](OC(F)(F)F)C4)o3)(C1)C2 [Example 173] | < 1000 nM
O=C(COc1ccc(Cl)c(F)c1)NC12CC(c3ncc(C4CCC4)o3)(C1)C2 [Example 47] | < 1000 nM
Cc1cc(F)ccc1-c1cn(C23CC(NC(=O)CO[C@H]4C[C@@H](OC(F)(F)F)C4)(C2)C3)cn1 [Example 142] | < 1000 nM
O=C(NC12CC(c3nnc([C@H]4C[C@@H](OC(F)(F)F)C4)o3)(C1)C2)c1ccc2cc(C(F)(F)F)ccc2n1 [Example 166, N-[1-[5-[3-cis-(trifluoromethoxy)cyclobutyl]-1,3,4-oxadiazol-2-yl]-3-bicyclo[1.1.1]pentanyl]-6-(trifluoromethyl)quinoline-2-carboxamide] | < 1000 nM

same assay, conditions: read-out: Activity (IC50); H4 ATF4-NLuc (clone 17) cells; compound 30 minutes, then 50 um sodium arsenite for 6 hours; luminescence readout

IC50 | Compound
< 1000 nM | C[C@H]1C[C@@H]1c1nnc(C23CC(NC(=O)COc4ccc(Cl)c(F)c4)(C2)C3)o1 (single isomer, unassigned) [Example 113, 2-(4-chloro-3-fluoro-phenoxy)-N-[1-[5-[2-methylcyclopropyl]-1,3,4-oxadiazol-2-yl]-3-bicyclo[1.1.1]pentanyl]acetamide]

— patent publication US11851440B2, “Modulators of eukaryotic initiation factor 2B, compositions and methods” (Denali Therapeutics Inc., priority 2017, dated 2023)
